The record followed here is the NIST ThermoML archive (doi:10.1021/je025655p).

As a reminder, the viscosity is the resistance of a fluid to flow. The term speed of sound denotes how fast a sound wave travels through the sample. By mass density is commonly meant mass per unit of volume.

The conditions of this data set: 101.33 kPa, Liquid; for viscosity: Capillary tube (Ostwald / Ubbelohde) method; for speed of sound: Sing-around technique in a fixed-path interferometer; for mass density: Vibrating tube method.

The structures appear in SMILES notation. Numbers after ± are expanded uncertainties.

Consider `OCC(F)(F)F` [2,2,2-trifluoroethanol], for which, for the setting “283.15 K”, the viscosity is on record as 2.693 ± 0.023 mPa·s, the speed of sound came to 872.3 ± 1.2 m/s and the mass density was 1407.89 ± 0.21 kg/m3. Besides, for the setting “298.15 K”, the viscosity was 1.755 ± 0.017 mPa·s, the speed of sound is given as 826.7 ± 1.1 m/s and the mass density was 1382.44 ± 0.2 kg/m3. Further, where the note is “313.15 K”, the viscosity was determined as 1.208 ± 0.012 mPa·s, the speed of sound is on record as 791.7 ± 1.1 m/s and the mass density was determined as 1356.91 ± 0.19 kg/m3.

In the case of `C1CCOCC1` [tetrahydropyran], where the note is “283.15 K”, the viscosity worked out at 1.005 ± 0.0098 mPa·s, the speed of sound is 1335.8 ± 1.6 m/s and the mass density is 894.08 ± 0.46 kg/m3. Moreover, under “298.15 K”, the viscosity was 0.8005 ± 0.0081 mPa·s, the speed of sound is given as 1255 ± 1.6 m/s and the mass density is 879.18 ± 0.45 kg/m3. For the setting “313.15 K”, the viscosity is listed as 0.6494 ± 0.0067 mPa·s, the speed of sound was 1199.8 ± 1.6 m/s and the mass density is 864.37 ± 0.45 kg/m3.
